What was measured:
[1] = test system: chloroquine-sensitive P. falciparum (NF54); assay: Antimalarial activity in vitro, [3H]hypoxanthine incorporation; assay type: cell-based; conditions: Table I; NF54 strain; read-out: IC50
[2] = test system: 60 cell line panel; assay type: cell-based
[3] = test system: K-562; assay: NCI 60 cell line panel screen (SRB); assay type: cell-based, human
[4] = test system: EKVX; assay: NCI 60 cell line panel screen (SRB); assay type: cell-based, human
[5] = test system: HOP-62; assay: NCI 60 cell line panel screen (SRB); assay type: cell-based, human
[6] = test system: HOP-92; assay: NCI 60 cell line panel screen (SRB); assay type: cell-based, human
[7] = test system: NCI-H23; assay: NCI 60 cell line panel screen (SRB); assay type: cell-based, human
[8] = test system: NCI-H322M; assay type: cell-based
[9] = test system: NCI-H460; assay: NCI 60 cell line panel screen (SRB); assay type: cell-based, human
[10] = test system: HCT-116; assay: NCI 60 cell line panel screen (SRB); assay type: cell-based, human
[11] = test system: HT29; assay: NCI 60 cell line panel screen (SRB); assay type: cell-based, human
[12] = test system: SF-539; assay: NCI 60 cell line panel screen (SRB); assay type: cell-based, human
[13] = test system: SNB-19; assay: NCI 60 cell line panel screen (SRB); assay type: cell-based, human
[14] = test system: SNB-75; assay: NCI 60 cell line panel screen (SRB); assay type: cell-based, human
[15] = test system: SK-MEL-28; assay: NCI 60 cell line panel screen (SRB); assay type: cell-based, human
[16] = test system: UACC-257; assay: NCI 60 cell line panel screen (SRB); assay type: cell-based, human; conditions: UACC-257 (Melanoma)
[17] = test system: IGROVI; assay: NCI 60 cell line panel screen (SRB); assay type: cell-based, human
[18] = test system: OVCAR-3; assay: NCI 60 cell line panel screen (SRB); assay type: cell-based, human
[19] = test system: OVCAR-8; assay: NCI 60 cell line panel screen (SRB); assay type: cell-based, human
[20] = test system: SK-OV-3; assay: NCI 60 cell line panel screen (SRB); assay type: cell-based, human; conditions: SK-OV-3 (Ovarian Cancer)
[21] = test system: CAKI-1; assay: NCI 60 cell line panel screen (SRB); assay type: cell-based, human
[22] = test system: RXF 393; assay: NCI 60 cell line panel screen (SRB); assay type: cell-based, human
[23] = test system: PC-3; assay: NCI 60 cell line panel screen (SRB); assay type: cell-based, human
[24] = test system: NCI/ADR-RES; assay: NCI 60 cell line panel screen (SRB); assay type: cell-based, human
[25] = test system: BT-549; assay: NCI 60 cell line panel screen (SRB); assay type: cell-based, human
[26] = test system: T-47D; assay: NCI 60 cell line panel screen (SRB); assay type: cell-based, human
[27] = mean value over the 60 cell line panel

SMILES: C[C@@H]1CC[C@H]2[C@@H](C)C(CC(O)(CC3OC4O[C@]5(C)CC[C@H]6[C@H](C)CC[C@@H]([C@H]3C)C46OO5)c3ccc(C(=O)O)cc3)OC3O[C@]4(C)CCC1C32OO4 (stereo partly drawn) [Compound 11b, bis-trioxane tertiary alcohol benzoic acid]
- IC50 [1]: 2.1 nM
- Log10GI50 Delta [2]: 0.93
- Log10GI50 Range [2]: 3.52
- Log10LC50 Delta ([2]; 60 cell line panel): 1.58
- Log10LC50 Range ([2]; 60 cell line panel): 1.65
- Log10TGI50 Delta ([2]; 60 cell line panel): 3.18
- Log10TGI50 Range ([2]; 60 cell line panel): 4.00
- growth inhibition in words ([2]; colon cancer KM12, ovarian cancer OVCAR 3, breast cancer MDA-MB-435): selectively and strong inhibitory
- Log10GI50 MG MID ([2]; mean over panel): −7.37
- Log10LC50 MG MID [2, 27]: −4.37 log10M
- Log10TGI50 MG MID [2, 27]: −5.12 log10M
- Log10LC50 ([3]; K-562 (Leukemia), LC50: PG=−50): >−4.30 log10M
- Log10TGI50 ([3]; K-562 (Leukemia), TGI: PG=0): >−4.30 log10M
- Log10GI50 ([3]; Leukemia, K-562): <−8.30
- Log10LC50 ([4]; EKVX (Non-Small Cell Lung Cancer), LC50: PG=−50): >−4.30 log10M
- Log10TGI50 ([4]; EKVX (Non-Small Cell Lung Cancer), TGI: PG=0): >−4.30 log10M
- Log10GI50 ([4]; Non-Small Cell Lung Cancer, EKVX): −4.79
- Log10LC50 ([5]; HOP-62 (Non-Small Cell Lung Cancer), LC50: PG=−50): >−4.30 log10M
- Log10TGI50 ([5]; HOP-62 (Non-Small Cell Lung Cancer), TGI: PG=0): >−4.30 log10M
- Log10GI50 ([5]; Non-Small Cell Lung Cancer, HOP-62): −6.96
- Log10LC50 ([6]; HOP-92 (Non-Small Cell Lung Cancer), LC50: PG=−50): >−4.30 log10M
- Log10TGI50 ([6]; HOP-92 (Non-Small Cell Lung Cancer), TGI: PG=0): >−4.30 log10M
- Log10GI50 ([6]; Non-Small Cell Lung Cancer, HOP-92): −7.43
- Log10LC50 ([7]; NCI-H23 (Non-Small Cell Lung Cancer), LC50: PG=−50): >−4.30 log10M
- Log10TGI50 ([7]; NCI-H23 (Non-Small Cell Lung Cancer), TGI: PG=0): −4.63 log10M
- Log10GI50 ([7]; Non-Small Cell Lung Cancer, NCI-H23): −8.19
- Log10GI50 [8]: −6.72
- Log10TGI50 [8]: >−4.30 log10M
- Log10LC50 ([8]; NCI-H322M (Non-Small Cell Lung Cancer), LC50: PG=−50): >−4.30 log10M
- Log10LC50 ([9]; NCI-H460 (Non-Small Cell Lung Cancer), LC50: PG=−50): >−4.30 log10M
- Log10TGI50 ([9]; NCI-H460 (Non-Small Cell Lung Cancer), TGI: PG=0): >−4.30 log10M
- Log10GI50 ([9]; Non-Small Cell Lung Cancer, NCI-H460): <−8.30
- Log10GI50 ([10]; Colon Cancer, HCT-116): <−8.30
- Log10LC50 ([10]; HCT-116 (Colon Cancer), LC50: PG=−50): >−4.30 log10M
- Log10TGI50 ([10]; HCT-116 (Colon Cancer), TGI: PG=0): −4.40 log10M
- Log10GI50 ([11]; Colon Cancer, HT29): <−8.30
- Log10LC50 ([11]; HT29 (Colon Cancer), LC50: PG=−50): >−4.30 log10M
- Log10TGI50 ([11]; HT29 (Colon Cancer), TGI: PG=0): >−4.30 log10M
- Log10GI50 ([12]; CNS Cancer, SF-539): −4.80
- Log10LC50 ([12]; SF-539 (CNS Cancer), LC50: PG=−50): >−4.30 log10M
- Log10TGI50 ([12]; SF-539 (CNS Cancer), TGI: PG=0): >−4.30 log10M
- Log10GI50 ([13]; CNS Cancer, SNB-19): −6.53
- Log10LC50 ([13]; SNB-19 (CNS Cancer), LC50: PG=−50): >−4.30 log10M
- Log10TGI50 ([13]; SNB-19 (CNS Cancer), TGI: PG=0): >−4.30 log10M
- Log10GI50 ([14]; CNS Cancer, SNB-75): −7.40
- Log10LC50 ([14]; SNB-75 (CNS Cancer), LC50: PG=−50): >−4.30 log10M
- Log10TGI50 ([14]; SNB-75 (CNS Cancer), TGI: PG=0): >−4.30 log10M
- Log10GI50 ([15]; Melanoma, SK-MEL-28): −6.40
- Log10LC50 ([15]; SK-MEL-28 (Melanoma), LC50: PG=−50): >−4.30 log10M
- Log10TGI50 ([15]; SK-MEL-28 (Melanoma), TGI: PG=0): >−4.30 log10M
- Log10LC50 ([16]; LC50: PG=−50): >−4.30 log10M
- Log10TGI50 ([16]; TGI: PG=0): >−4.30 log10M
- Log10LC50 ([17]; IGROVI (Ovarian Cancer), LC50: PG=−50): >−4.30 log10M
- Log10TGI50 ([17]; IGROVI (Ovarian Cancer), TGI: PG=0): −4.50 log10M
- Log10GI50 ([17]; Ovarian Cancer, IGROVI): −5.98
- Log10LC50 ([18]; OVCAR-3 (Ovarian Cancer), LC50: PG=−50): >−4.30 log10M
- Log10TGI50 ([18]; OVCAR-3 (Ovarian Cancer), TGI: PG=0): −8.07 log10M
- Log10GI50 ([18]; Ovarian Cancer, OVCAR-3): <−8.30
- Log10LC50 ([19]; OVCAR-8 (Ovarian Cancer), LC50: PG=−50): >−4.30 log10M
- Log10TGI50 ([19]; OVCAR-8 (Ovarian Cancer), TGI: PG=0): >−4.30 log10M
- Log10GI50 ([19]; Ovarian Cancer, OVCAR-8): −5.26
- Log10LC50 ([20]; LC50: PG=−50): >−4.30 log10M
- Log10TGI50 ([20]; TGI: PG=0): >−4.30 log10M
- Log10LC50 ([21]; CAKI-1 (Renal Cancer), LC50: PG=−50): −4.44 log10M
- Log10TGI50 ([21]; CAKI-1 (Renal Cancer), TGI: PG=0): −6.91 log10M
- Log10GI50 ([21]; Renal Cancer, CAKI-1): −7.74
- Log10LC50 ([22]; RXF 393 (Renal Cancer), LC50: PG=−50): >−4.30 log10M
- Log10TGI50 ([22]; RXF 393 (Renal Cancer), TGI: PG=0): −7.60 log10M
- Log10GI50 ([22]; Renal Cancer, RXF 393): <−8.30
- Log10LC50 ([23]; PC-3 (Prostate Cancer), LC50: PG=−50): >−4.30 log10M
- Log10TGI50 ([23]; PC-3 (Prostate Cancer), TGI: PG=0): −5.75 log10M
- Log10GI50 ([23]; Prostate Cancer, PC-3): <−8.30
- Log10GI50 ([24]; Breast Cancer, NCI/ADR-RES): −6.84
- Log10LC50 ([24]; NCI/ADR-RES (Breast Cancer), LC50: PG=−50): >−4.30 log10M
- Log10TGI50 ([24]; NCI/ADR-RES (Breast Cancer), TGI: PG=0): >−4.30 log10M
- Log10LC50 ([25]; BT-549 (Breast Cancer), LC50: PG=−50): >−4.30 log10M
- Log10TGI50 ([25]; BT-549 (Breast Cancer), TGI: PG=0): −5.32 log10M
- Log10GI50 ([25]; Breast Cancer, BT-549): −5.82
- Log10GI50 ([26]; Breast Cancer, T-47D): <−8.30
- Log10LC50 ([26]; T-47D (Breast Cancer), LC50: PG=−50): >−4.30 log10M
- Log10TGI50 ([26]; T-47D (Breast Cancer), TGI: PG=0): >−4.30 log10M

Source: patent publication US7417156B2, “Orally active, antimalarial, anticancer, artemisinin-derived trioxane dimers” (Johns Hopkins University, priority 2002, dated 2008)
